Assay results as given in patent US20120121591A1 (priority 2009, published 2012).
Where two headings read alike, the source gives them in different places.

Key:
Assay type in all cases: cell-based
[1] = molecular target: hKv1.3 (Homo sapiens, UniProt P22001); experiment: cell-based; conditions: Kv1.3 (IWQ) IC50 (nM, Avg)
[2] = system: IL-2 secretion from T cells in human whole blood
[3] = system: IFN-g secretion from T cells in human whole blood; conditions: read-out: WB (IFNg) IC50 (nM, Avg)
[4] = read-out: WB (IL-2) IC50 (nM, Avg)

Chain of hKv1.3 (P22001 whole entry): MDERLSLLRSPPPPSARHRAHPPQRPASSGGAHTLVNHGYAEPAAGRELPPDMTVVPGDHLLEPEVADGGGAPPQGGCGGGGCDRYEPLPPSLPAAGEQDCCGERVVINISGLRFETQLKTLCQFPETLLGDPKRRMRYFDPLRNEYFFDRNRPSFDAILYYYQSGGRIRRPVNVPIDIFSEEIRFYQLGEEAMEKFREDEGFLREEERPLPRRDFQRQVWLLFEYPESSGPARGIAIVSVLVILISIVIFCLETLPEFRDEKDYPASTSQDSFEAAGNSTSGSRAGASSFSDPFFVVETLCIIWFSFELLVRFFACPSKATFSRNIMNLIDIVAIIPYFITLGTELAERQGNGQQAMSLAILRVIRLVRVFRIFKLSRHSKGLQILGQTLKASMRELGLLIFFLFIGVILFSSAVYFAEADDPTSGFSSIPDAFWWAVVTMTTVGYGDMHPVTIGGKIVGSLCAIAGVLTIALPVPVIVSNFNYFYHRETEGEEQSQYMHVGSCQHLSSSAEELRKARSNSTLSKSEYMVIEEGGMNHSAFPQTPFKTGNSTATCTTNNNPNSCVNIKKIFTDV

Row | Compound | IC50 [1] [nM] | IC50 [2, 4] [nM] | IC50 [3] [nM] | IC50 ([2]; read-out: WB (IL-2) IC50) [nM]
1 | CC[C@H](C)[C@@H]1NC(=O)[C@@H](NC(=O)[C@H](CO)NC(=O)[C@@H](N)CCCNC(=N)N)CSSC[C@@H](C(=O)O)NC(=O)[C@H]([C@@H](C)O)NC(=O)CNC(=O)[C@@H]2CSSC[C@@H]3NC(=O)[C@H](CCC(N)=O)NC(=O)[C@H](CCCCN)NC(=O)[C@H](C)NC(=O)[C@H]([C@@H](C)O)NC(=O)[C@H](CSSC[C@H](NC(=O)[C@H](Cc4ccccc4)NC(=O)[C@H](CO)NC(=O)[C@H](CC(C)C)NC(=O)[C@H](CCCNC(=N)N)NC(=O)[C@H](Cc4ccc(O)cc4)NC(=O)[C@H](CCCCN)NC(=O)[C@H](CCSC)NC(=O)[C@H](CO)NC(=O)[C@H](Cc4c[nH]cn4)NC(=O)[C@H](CCCCN)NC3=O)C(=O)N[C@@H](CCCNC(=N)N)C(=O)N[C@@H](CCCCN)C(=O)N[C@@H]([C@@H](C)O)C(=O)N2)NC(=O)[C@H](CCCNC(=N)N)NC(=O)[C@H](CO)NC(=O)[C@H](CCCCN)NC(=O)[C@@H]2CCCN2C(=O)[C@H]([C@@H](C)CC)NC(=O)[C@H]([C@@H](C)O)NC(=O)[C@H](CC(=O)O)NC1=O [[Lys15]ShK] | 0.295 | 0.465 | 0.991 | 
2 | CCCC[C@@H]1NC(=O)[C@H](CO)NC(=O)[C@H](Cc2c[nH]cn2)NC(=O)[C@H](CCCCN)NC(=O)[C@@H]2CSSC[C@@H]3NC(=O)[C@H]([C@@H](C)O)NC(=O)[C@H](CCCCN)NC(=O)[C@H](CCCNC(=N)N)NC(=O)[C@H](CSSC[C@H](NC(=O)[C@H](CCCNC(=N)N)NC(=O)[C@H](CO)NC(=O)[C@H](CCCCN)NC(=O)[C@@H]4CCCN4C(=O)[C@H]([C@@H](C)CC)NC(=O)[C@H]([C@@H](C)O)NC(=O)[C@H](CC(=O)O)NC(=O)[C@H](CCC(=O)O)NC(=O)[C@@H](NC(=O)[C@H](CO)NC(=O)[C@@H](N)CCCNC(=N)N)CSSC[C@@H](C(=O)N[C@@H](C)C(=O)O)NC(=O)[C@H]([C@@H](C)O)NC(=O)CNC3=O)C(=O)N[C@@H]([C@@H](C)O)C(=O)N[C@@H](C)C(=O)N[C@@H](Cc3ccccc3)C(=O)N[C@@H](CCCCN)C(=O)N2)NC(=O)[C@H](Cc2ccccc2)NC(=O)[C@H](CO)NC(=O)[C@H](CC(C)C)NC(=O)[C@H](CCCNC(=N)N)NC(=O)[C@H](Cc2ccc(O)cc2)NC(=O)[C@H](CCCCN)NC1=O [[Glu4,Lys16,N1e21]ShK-Ala] | 33.3 | 0.327 | 0.987 | 
3 | CC[C@H](C)[C@@H]1NC(=O)[C@@H](NC(=O)[C@H](CO)NC(=O)[C@@H](N)CCCNC(=N)N)CSSC[C@@H](C(N)=O)NC(=O)[C@H]([C@@H](C)O)NC(=O)CNC(=O)[C@@H]2CSSC[C@@H]3NC(=O)[C@H](CCCCN)NC(=O)[C@H](Cc4ccccc4)NC(=O)[C@H](C)NC(=O)[C@H]([C@@H](C)O)NC(=O)[C@H](CSSC[C@H](NC(=O)[C@H](Cc4c[nH]c5ccccc45)NC(=O)[C@H](CO)NC(=O)[C@H](CC(C)C)NC(=O)[C@H](CCCNC(=N)N)NC(=O)[C@H](Cc4ccc(O)cc4)NC(=O)[C@H](CCCCN)NC(=O)[C@H](CCSC)NC(=O)[C@H](CO)NC(=O)[C@H](Cc4c[nH]cn4)NC(=O)[C@H](CCCCN)NC3=O)C(=O)N[C@@H](CCCCN)C(=O)N[C@@H](CCCCN)C(=O)N[C@@H]([C@@H](C)O)C(=O)N2)NC(=O)[C@H](CCCNC(=N)N)NC(=O)[C@H](CO)NC(=O)[C@H](CCCCN)NC(=O)[C@@H]2CCCN2C(=O)[C@H]([C@@H](C)CC)NC(=O)[C@H]([C@@H](C)O)NC(=O)[C@H](CC(=O)O)NC1=O [[Lys16,29;Trp27]ShK-amide] | 0.121 | 0.264 | 0.606 | 
4 | CCCC[C@@H]1NC(=O)[C@H](CO)NC(=O)[C@H](Cc2c[nH]cn2)NC(=O)[C@H](CCCCN)NC(=O)[C@@H]2CSSC[C@@H]3NC(=O)[C@H]([C@@H](C)O)NC(=O)[C@H](CCCCN)NC(=O)[C@H](CCCNC(=N)N)NC(=O)[C@H](CSSC[C@H](NC(=O)[C@H](CCCNC(=N)N)NC(=O)[C@H](CO)NC(=O)[C@H](CCCCN)NC(=O)[C@@H]4CCCN4C(=O)[C@H]([C@@H](C)CC)NC(=O)[C@H]([C@@H](C)O)NC(=O)[C@H](CC(=O)O)NC(=O)[C@H]([C@@H](C)CC)NC(=O)[C@@H](NC(=O)[C@H](CO)NC(=O)[C@@H](N)CCCNC(=N)N)CSSC[C@@H](C(N)=O)NC(=O)[C@H]([C@@H](C)O)NC(=O)CNC3=O)C(=O)N[C@@H]([C@@H](C)O)C(=O)N[C@@H](C)C(=O)N[C@@H](Cc3ccccc3)C(=O)N[C@@H](CCCCN)C(=O)N2)NC(=O)[C@H](Cc2ccccc2)NC(=O)[C@H](CO)NC(=O)[C@H](CC(C)C)NC(=O)[C@H](CCCNC(=N)N)NC(=O)[C@H](Cc2ccc(O)cc2)NC(=O)[C@H](CCCCN)NC1=O [[Lys16, Nle21]ShK-amide] | 0.153 | 0.823 | 1.1 | 0.82
5 | CCCC[C@@H]1NC(=O)[C@H](CO)NC(=O)[C@H](Cc2c[nH]cn2)NC(=O)[C@H](CCCCN)NC(=O)[C@@H]2CSSC[C@@H]3NC(=O)[C@H]([C@@H](C)O)NC(=O)[C@H](CCCCN)NC(=O)[C@H](CCCNC(=N)N)NC(=O)[C@H](CSSC[C@H](NC(=O)[C@H](CCCNC(=N)N)NC(=O)[C@H](CO)NC(=O)[C@H](CCCCN)NC(=O)[C@@H]4CCCN4C(=O)[C@H]([C@@H](C)CC)NC(=O)[C@H]([C@@H](C)O)NC(=O)[C@H](CC(=O)O)NC(=O)[C@H]([C@@H](C)CC)NC(=O)[C@@H](NC(=O)[C@H](CO)NC(=O)[C@@H](N)CCCNC(=N)N)CSSC[C@@H](C(=O)N[C@@H](CC(=O)O)C(N)=O)NC(=O)[C@H]([C@@H](C)O)NC(=O)CNC3=O)C(=O)N[C@@H]([C@@H](C)O)C(=O)N[C@@H](C)C(=O)N[C@@H](Cc3ccccc3)C(=O)N[C@@H](CCCCN)C(=O)N2)NC(=O)[C@H](Cc2ccccc2)NC(=O)[C@H](CO)NC(=O)[C@H](CC(C)C)NC(=O)[C@H](CCCNC(=N)N)NC(=O)[C@H](Cc2ccc(O)cc2)NC(=O)[C@H](CCCCN)NC1=O [[Lys16, Nle21]ShK-Asp-amide] | 0.39 | 0.295 | 0.403 | 
6 | CC[C@H](C)[C@@H]1NC(=O)[C@@H](NC(=O)[C@H](CO)NC(=O)[C@@H](N)CCCNC(=N)N)CSSC[C@@H](C(N)=O)NC(=O)[C@H]([C@@H](C)O)NC(=O)CNC(=O)[C@@H]2CSSC[C@@H]3NC(=O)[C@H](CCCCN)NC(=O)[C@H](Cc4ccccc4)NC(=O)[C@H](C)NC(=O)[C@H]([C@@H](C)O)NC(=O)[C@H](CSSC[C@H](NC(=O)[C@H](Cc4ccccc4)NC(=O)[C@H](CO)NC(=O)[C@H](CC(C)C)NC(=O)[C@H](CCCNC(=N)N)NC(=O)[C@H](Cc4ccc(O)cc4)NC(=O)[C@H](CCCCN)NC(=O)[C@H](C4CCCCC4)NC(=O)[C@H](CO)NC(=O)[C@H](Cc4c[nH]cn4)NC(=O)[C@H](CCCCN)NC3=O)C(=O)N[C@@H](CCCNC(=N)N)C(=O)N[C@@H](CCCCN)C(=O)N[C@@H]([C@@H](C)O)C(=O)N2)NC(=O)[C@H](CCCNC(=N)N)NC(=O)[C@H](CO)NC(=O)[C@H](CCCCN)NC(=O)[C@@H]2CCCN2C(=O)[C@H]([C@@H](C)CC)NC(=O)[C@H]([C@@H](C)O)NC(=O)[C@H](CC(=O)O)NC1=O [[Lys16, Chg21]ShK-amide] | 0.205 | 0.875 | 0.727 | 
7 | CC[C@H](C)[C@@H]1NC(=O)[C@@H](NC(=O)[C@H](CO)NC(=O)[C@@H](N)CCCNC(=N)N)CSSC[C@@H](C(=O)O)NC(=O)[C@H]([C@@H](C)O)NC(=O)CNC(=O)[C@@H]2CSSC[C@@H]3NC(=O)[C@H](CCC(N)=O)NC(=O)[C@H](Cc4ccccc4)NC(=O)[C@H](C)NC(=O)[C@H]([C@@H](C)O)NC(=O)[C@H](CSSC[C@H](NC(=O)[C@H](Cc4ccccc4)NC(=O)[C@H](CO)NC(=O)[C@H](CC(C)C)NC(=O)[C@H](CCCNC(=N)N)NC(=O)[C@H](Cc4ccc(O)cc4)NC(=O)[C@H](CCCCN)NC(=O)[C@H](CCSC)NC(=O)[C@H](CCCCN)NC(=O)[C@H](Cc4c[nH]cn4)NC(=O)[C@H](CCCCN)NC3=O)C(=O)N[C@@H](CCCNC(=N)N)C(=O)N[C@@H](CCCCN)C(=O)N[C@@H]([C@@H](C)O)C(=O)N2)NC(=O)[C@H](CCCNC(=N)N)NC(=O)[C@H](CO)NC(=O)[C@H](CCCCN)NC(=O)[C@@H]2CCCN2C(=O)[C@H]([C@@H](C)CC)NC(=O)[C@H]([C@@H](C)O)NC(=O)[C@H](CC(=O)O)NC1=O [[Lys20]ShK] | 1.33 | 0.108 | 0.192 | 
8 | CCCC[C@@H]1NC(=O)[C@H](CO)NC(=O)[C@H](Cc2c[nH]cn2)NC(=O)[C@H](CCCCN)NC(=O)[C@@H]2CSSC[C@@H]3NC(=O)[C@H]([C@@H](C)O)NC(=O)[C@H](CCCCN)NC(=O)[C@H](CCCNC(=N)N)NC(=O)[C@H](CSSC[C@H](NC(=O)[C@H](CCCNC(=N)N)NC(=O)[C@H](CO)NC(=O)[C@H](CCCCN)NC(=O)[C@@H]4CCCN4C(=O)[C@H]([C@@H](C)CC)NC(=O)[C@H]([C@@H](C)O)NC(=O)[C@H](CC(=O)O)NC(=O)[C@H]([C@@H](C)CC)NC(=O)[C@@H](NC(=O)[C@H](CO)NC(=O)[C@@H](N)CCCNC(=N)N)CSSC[C@@H](C(=O)N[C@@H](CCC(=O)O)C(=O)O)NC(=O)[C@H]([C@@H](C)O)NC(=O)CNC3=O)C(=O)N[C@@H]([C@@H](C)O)C(=O)N[C@@H](C)C(=O)N[C@@H](Cc3ccccc3)C(=O)N[C@@H](CCCCN)C(=O)N2)NC(=O)[C@H](Cc2ccccc2)NC(=O)[C@H](CO)NC(=O)[C@H](CC(C)C)NC(=O)[C@H](CCCNC(=N)N)NC(=O)[C@H](Cc2ccc(O)cc2)NC(=O)[C@H](CCCCN)NC1=O [[Lys16,N1e21]ShK-Glu] | 22.5 | 0.386 | 0.621 | 
